Test results reported in PubChem BioAssay AID1259407 (Chemical Carcinogenesis Research Information System (CCRIS), 2018).
Activity calls are given as the source filed them. How the calls were made is not given here.

Test system: CCRIS mutagenicity, Ames/micronucleus/aberration tests
Assay: CCRIS mutagenicity studies
[1] = Test System: AMES SALMONELLA TYPHIMURIUM, Strain/Indicator: TA98, Metabolic Activation: RAT, LIVER, S-9, AROCLOR 1254, Method: STANDARD PLATE
[2] = Test System: AMES SALMONELLA TYPHIMURIUM, Strain/Indicator: TA1537, Metabolic Activation: RAT, LIVER, S-9, AROCLOR 1254, Method: STANDARD PLATE
[3] = Test System: AMES SALMONELLA TYPHIMURIUM, Strain/Indicator: TA1538, Metabolic Activation: RAT, LIVER, S-9, AROCLOR 1254, Method: STANDARD PLATE
[4] = Test System: MOUSE LYMPHOMA, Strain/Indicator: L5178Y (TK+/TK-), Metabolic Activation: NONE, Method: SUSPENSION/PLATE

C/C=C/c1ccc(O)c(OC)c1
mutagenic call (End Point: E. coli, Test System: WP2uvrA/pKM101, Metabolic Activation: None, Method: Preincubation): inactive; negative | mutagenic call (End Point: E. coli, Test System: WP2uvrA/pKM101, Metabolic Activation: Rat, Liver, S-9, Aroclor 1254 (10%), Method: Preincubation): inactive; negative | mutagenic call (End Point: In vitro chromosomal aberrations, Test System: Chinese hamster ovary (CHO) cells, Metabolic Activation: None): inactive; negative | mutagenic call (End Point: In vitro chromosomal aberrations, Test System: Chinese hamster ovary (CHO) cells, Metabolic Activation: Rat, Liver, S-9, Aroclor 1254): inactive; negative | mutagenic call (End Point: In vivo micronucleus, Test System: Micronucleated normochromatic erythrocytes in perripheral blood, Species: Mouse, Strain/Sex: B6C3F1 / Female, Route: Oral): active; positive | mutagenic call (End Point: In vivo micronucleus, Test System: Micronucleated normochromatic erythrocytes in perripheral blood, Species: Mouse, Strain/Sex: B6C3F1 / Male, Route: Oral): inactive; negative | mutagenic call (Test System: AMES SALMONELLA TYPHIMURIUM, Strain/Indicator: TA97, Metabolic Activation: NONE, Method: PREINCUBATION): inactive; negative | mutagenic call (Test System: AMES SALMONELLA TYPHIMURIUM, Strain/Indicator: TA97, Metabolic Activation: RAT, LIVER, S-9, AROCLOR 1254, Method: PREINCUBATION): inactive; negative | mutagenic call (Test System: AMES SALMONELLA TYPHIMURIUM, Strain/Indicator: TA98, Metabolic Activation: HAMSTER, LIVER, S-9, AROCLOR 1254, Method: STANDARD PLATE): inactive; negative | mutagenic call (Test System: AMES SALMONELLA TYPHIMURIUM, Strain/Indicator: TA98, Metabolic Activation: NONE, Method: STANDARD PLATE): inactive; negative | mutagenic call [1]: inactive; negative | mutagenic call (Test System: AMES SALMONELLA TYPHIMURIUM, Strain/Indicator: TA100, Metabolic Activation: HAMSTER, LIVER, S-9, AROCLOR 1254, Method: STANDARD PLATE): inactive; negative | mutagenic call (Test System: AMES SALMONELLA TYPHIMURIUM, Strain/Indicator: TA100, Metabolic Activation: NONE, Method: STANDARD PLATE): inactive; negative | mutagenic call (Test System: AMES SALMONELLA TYPHIMURIUM, Strain/Indicator: TA100, Metabolic Activation: RAT, LIVER, S-9, AROCLOR 1254, Method: STANDARD PLATE): inactive; negative | mutagenic call (Test System: AMES SALMONELLA TYPHIMURIUM, Strain/Indicator: TA102, Metabolic Activation: NONE, Method: PREINCUBATION): inactive; negative | mutagenic call (Test System: AMES SALMONELLA TYPHIMURIUM, Strain/Indicator: TA102, Metabolic Activation: RAT, LIVER, S-9, AROCLOR 1254, Method: PREINCUBATION): inactive; negative | mutagenic call (Test System: AMES SALMONELLA TYPHIMURIUM, Strain/Indicator: TA1535, Metabolic Activation: HAMSTER, LIVER, S-9, AROCLOR 1254, Method: STANDARD PLATE): inactive; negative | mutagenic call (Test System: AMES SALMONELLA TYPHIMURIUM, Strain/Indicator: TA1535, Metabolic Activation: NONE, Method: STANDARD PLATE): inactive; negative | mutagenic call (Test System: AMES SALMONELLA TYPHIMURIUM, Strain/Indicator: TA1535, Metabolic Activation: RAT, LIVER, S-9, AROCLOR 1254, Method: STANDARD PLATE): inactive; negative | mutagenic call (Test System: AMES SALMONELLA TYPHIMURIUM, Strain/Indicator: TA1537, Metabolic Activation: HAMSTER, LIVER, S-9, AROCLOR 1254, Method: STANDARD PLATE): inactive; negative | mutagenic call (Test System: AMES SALMONELLA TYPHIMURIUM, Strain/Indicator: TA1537, Metabolic Activation: NONE, Method: STANDARD PLATE): inactive; negative | mutagenic call [2]: inactive; negative | mutagenic call (Test System: AMES SALMONELLA TYPHIMURIUM, Strain/Indicator: TA1538, Metabolic Activation: HAMSTER, LIVER, S-9, AROCLOR 1254, Method: STANDARD PLATE): inactive; negative | mutagenic call (Test System: AMES SALMONELLA TYPHIMURIUM, Strain/Indicator: TA1538, Metabolic Activation: NONE, Method: STANDARD PLATE): inactive; negative | mutagenic call [3]: inactive; negative | mutagenic call [4]: active; positive. reevaluation of results: positive | mutagenic call (Test System: MOUSE LYMPHOMA, Strain/Indicator: L5178Y (TK+/TK-), Metabolic Activation: RAT, LIVER, S-9, AROCLOR 1254, Method: SUSPENSION/PLATE): inactive; negative. reevaluation of results: negative

C1=Cc2c(cc3ccc4cccc5ccc2c3c45)CC1
mutagenic call [1]: active; positive | mutagenic call [2]: active; positive | mutagenic call [3]: active; positive

O=C(O)C1C(C(=O)O)C2(Cl)C(Cl)=C(Cl)C1(Cl)C2(Cl)Cl (configuration not stated)
mutagenic call (End Point: IN VITRO CHROMOSOMAL ABERRATIONS, Test System: CHINESE HAMSTER LUNG FIBROBLAST CELLS (CHL/IU), Metabolic Activation: RAT, LIVER, S-9, PHENOBARBITAL AND 5,6-BENZOFLAVONE): active; positive (structural changes) | mutagenic call (Test System: AMES SALMONELLA TYPHIMURIUM, Strain/Indicator: TA98, Metabolic Activation: HAMSTER, LIVER, S-9, AROCLOR 1254, Method: PREINCUBATION): inactive; negative | mutagenic call (Test System: AMES SALMONELLA TYPHIMURIUM, Strain/Indicator: TA98, Metabolic Activation: NONE, Method: PREINCUBATION): inactive; negative | mutagenic call (Test System: AMES SALMONELLA TYPHIMURIUM, Strain/Indicator: TA98, Metabolic Activation: RAT, LIVER, S-9, AROCLOR 1254, Method: PREINCUBATION): inactive; negative | mutagenic call (Test System: AMES SALMONELLA TYPHIMURIUM, Strain/Indicator: TA100, Metabolic Activation: HAMSTER, LIVER, S-9, AROCLOR 1254, Method: PREINCUBATION): inactive; negative | mutagenic call (Test System: AMES SALMONELLA TYPHIMURIUM, Strain/Indicator: TA100, Metabolic Activation: NONE, Method: PREINCUBATION): inactive; negative | mutagenic call (Test System: AMES SALMONELLA TYPHIMURIUM, Strain/Indicator: TA100, Metabolic Activation: RAT, LIVER, S-9, AROCLOR 1254, Method: PREINCUBATION): inactive; negative | mutagenic call (Test System: AMES SALMONELLA TYPHIMURIUM, Strain/Indicator: TA1535, Metabolic Activation: HAMSTER, LIVER, S-9, AROCLOR 1254, Method: PREINCUBATION): inactive; negative | mutagenic call (Test System: AMES SALMONELLA TYPHIMURIUM, Strain/Indicator: TA1535, Metabolic Activation: NONE, Method: PREINCUBATION): inactive; negative | mutagenic call (Test System: AMES SALMONELLA TYPHIMURIUM, Strain/Indicator: TA1535, Metabolic Activation: RAT, LIVER, S-9, AROCLOR 1254, Method: PREINCUBATION): inactive; negative | mutagenic call (Test System: AMES SALMONELLA TYPHIMURIUM, Strain/Indicator: TA1537, Metabolic Activation: HAMSTER, LIVER, S-9, AROCLOR 1254, Method: PREINCUBATION): inactive; negative | mutagenic call (Test System: AMES SALMONELLA TYPHIMURIUM, Strain/Indicator: TA1537, Metabolic Activation: NONE, Method: PREINCUBATION): inactive; negative | mutagenic call (Test System: AMES SALMONELLA TYPHIMURIUM, Strain/Indicator: TA1537, Metabolic Activation: RAT, LIVER, S-9, AROCLOR 1254, Method: PREINCUBATION): inactive; negative | mutagenic call (Test System: MOUSE LYMPHOMA, Strain/Indicator: L5178Y (TK+/TK-), Metabolic Activation: NONE, Method: MICROWELL): active; positive | mutagenic call [4]: active; positive | mutagenic call (Test System: MOUSE LYMPHOMA, Strain/Indicator: L5178Y (TK+/TK-), Metabolic Activation: S-9, Method: MICROWELL): active; positive

C1CC2(CCO1)CO2
mutagenic call (Test System: AMES SALMONELLA TYPHIMURIUM, Strain/Indicator: TA100, Metabolic Activation: STANDARD PLATE): active; positive
